Experimental data as given in paper PMC7226417, “Utilizing Genome-Wide mRNA Profiling to Identify the Cytotoxic Chemotherapeutic Mechanism of Triazoloacridone C-1305 as Direct Microtubule Stabilization” (Cancers, 2020).

Test system: T1, tubulin (α/β tubulin dimer)
T1 construct: with α- and β-tubulin heterodimer
Assay: in vitro tubulin polymerization assay, turbidity at […] nm (stabilization of polymerization)
Type: biochemical

Structure (SMILES): CN(C)CCCNc1ccc2nnn3c4ccc(O)cc4c(=O)c1c23 [C-1305, 5-{[3-(Dimethylamino)propyl]amino}-8-hydroxy-6H-[1,2,3]triazolo[4,5,1-de]acridin-6-one]
- EC50: 2740 nM
